Results published in patent publication US10662138B2, “Herbicidal propynyl-phenyl compounds” (Syngenta Participations AG, priority 2014, dated 2020).

How the values were obtained:
Type in all cases: in vivo
Abutilon theophrasti = experiment: Glasshouse assay for herbicidal activity, post-emergence, ABUTH; conditions: Abutilon theophrasti, 312 h, visual 13 days after application, 100%=total damage, read-out: Percentage phytotoxicity ABUTH
Experimental: (§1) Seeds of a variety of test plant species were sown in standard soil ** in pots. After cultivation for one day (pre-emergence) or after 8 days cultivation (post-emergence) under controlled conditions in a glasshouse (at 24/16° C., day/night; 14 hours light; 65% humidity), the plants were sprayed with an aqueous spray solution derived from the formulation of the technical active ingredient (the test herbicide) in acetone/water (50:50) solution containing 0.5% Tween 20 (polyoxyethylene sorbitan monolaurate, CAS Reg. No. 9005-64-5). The test plants were then grown on under controlled conditions in a glasshouse (at 24/16° C., day/night; 14 hours light; 65% humidity) and watered twice daily. 13 Days after application of the test herbicide, for pre- and post-emergence, the test was evaluated visually for percentage phytotoxicity to each plant (where 100%=total damage to plant; 0%=no damage to plant). Generally, each test herbicide is only tested on 1 plant per plant species for each application rate tested and for each application timing. The “standard soil” in Biological Example 1 is usually a “sand” or “sandy loam” type of soil. Biological Example 1—Post-Emergence Application—Herbicidal Activity Results (Percentage Phytotoxicity) Dicotyledonous weeds: ABUTH=Abutilon theophrasti; AMARE=Amaranthus retroflexus. Grassy monocotyledonous weeds: SETFA=Setaria faberi; ALOMY=Alopecurus myosuroides; ECHCG=Echinochloa crus-galli; ZEAMX=Zea mays (corn, maize, e.g. volunteer corn).

Echinochloa crus-galli = experiment: Glasshouse assay for herbicidal activity, post-emergence, ECHCG; conditions: Echinochloa crus-galli, 312 h, visual 13 days after application, 100%=total damage, read-out: Percentage phytotoxicity ECHCG
Experimental: as §1

Setaria faberi = experiment: Glasshouse assay for herbicidal activity, post-emergence, SETFA; conditions: Setaria faberi, 312 h, visual 13 days after application, 100%=total damage, read-out: Percentage phytotoxicity SETFA
Experimental: as §1

Alopecurus myosuroides = experiment: Glasshouse assay for herbicidal activity, post-emergence, ALOMY; conditions: Alopecurus myosuroides, 312 h, visual 13 days after application, 100%=total damage, read-out: Percentage phytotoxicity ALOMY
Experimental: as §1

Amaranthus retroflexus = experiment: Glasshouse assay for herbicidal activity, post-emergence, AMARE; conditions: Amaranthus retroflexus, 312 h, visual 13 days after application, 100%=total damage, read-out: Percentage phytotoxicity AMARE
Experimental: as §1

[1] = test system: Zea mays (corn, maize, e.g. volunteer corn); experiment: Glasshouse assay for herbicidal activity, post-emergence, ZEAMX; conditions: Zea mays, 312 h, visual 13 days after application, 100%=total damage, read-out: Percentage phytotoxicity ZEAMX
Experimental: as §1

Compound	pest or weed control at 30 g/ha (Abutilon theophrasti) [%]	pest or weed control at 250 g/ha (Abutilon theophrasti) [%]	pest or weed control at 30 g/ha (Echinochloa crus-galli) [%]	pest or weed control at 250 g/ha (Echinochloa crus-galli) [%]	pest or weed control at 30 g/ha (Setaria faberi) [%]	pest or weed control at 250 g/ha (Setaria faberi) [%]	pest or weed control at 30 g/ha (Alopecurus myosuroides) [%]	pest or weed control at 250 g/ha (Alopecurus myosuroides) [%]	pest or weed control at 30 g/ha (Amaranthus retroflexus) [%]	pest or weed control at 250 g/ha (Amaranthus retroflexus) [%]	pest or weed control at 30 g/ha [1] [%]	pest or weed control at 250 g/ha [1] [%]
CC#Cc1cc(OC)c(C2C(=O)C3CCC(C3)C2=O)c(C(F)(F)F)c1 (stereo not drawn) [Compound A3, 3-[2-methoxy-4-prop-1-ynyl-6-(trifluoromethyl)phenyl]bicyclo[3.2.1]octane-2,4-dione]	0	0	70	100	70	90	40	70	0	0	90	90
CC#Cc1ccc(C2=C(OC(C)=O)C3CCC(C3)C2=O)c(OC)c1 (stereo not drawn) [Compound P1, [3-(2-methoxy-4-prop-1-ynyl-phenyl)-4-oxo-2-bicyclo[3.2.1]oct-2-enyl] acetate]		10		100		90		100		20		100
CC#Cc1ccc(C2C(=O)C3CCC(C3)C2=O)c(OC)c1 (stereo not drawn) [Compound A1, 3-(2-methoxy-4-prop-1-ynyl-phenyl)bicyclo[3.2.1]octane-2,4-dione]	10	20	100	100	90	100	100	100	30	50	100	100
CC#Cc1ccc(C2C(=O)C3CCC(C3)C2=O)c(OC(F)F)c1 (stereo not drawn) [Compound A5]	0	0	90	100	60	90	50	80	0	0	100	100
